Laboratory results taken from US20110183991A1, “5HT7 RECEPTOR LIGANDS AND COMPOSITIONS COMPRISING THE SAME” (LABORATORIOS DEL DR. ESTEVE, S.A., priority 2008, published 2011).
Like-named read-outs stand apart in the source and are kept apart here.

Biological target: T1, Cloned Human Serotonin Receptor, Subtype 7 (h5HT7), expressed in CHO cells (Homo sapiens, UniProt P34969)
T1 construct: purchased PerkinElmer 6120512; host or cells: CHO cells
Assay: Radioligand binding assay, [125I]LSD, cloned human 5HT7 receptor on Flashplate
Details: for inhibition at 1 µM: read-out: %-Inhib. (10^−6 M)
Description: The protocol assay was essentially the recommended protocol in the Technical Data Sheet by PerkinEmer Life and Analytical Sciences. The Mass membrane protein/well was typically 12 μg and the Receptor/well was about 9-10 fmoles. The Flashplate were let equilibrate at room temperature for one hour before the addition of the components of the assay mixture. The binding buffer was: 50 mM Tris-HCl, pH 7.4, containing 10 mM MgCl2, 0.5 mM EDTA and 0.5% BSA. […] Nonspecific binding was determined with 50 μM of Clozapine. The assay volume was 25 μl. TopSeal-A were applied onto Flashplate microplates and they were incubated at room temperature for 240 minutes in darkness.

[1] = compound at 10^−6 M, radioligand [125I]LSD 0.82 nM
[2] = 5HT7 binding experiments on the screening selection

T1 sequence (P34969 whole entry): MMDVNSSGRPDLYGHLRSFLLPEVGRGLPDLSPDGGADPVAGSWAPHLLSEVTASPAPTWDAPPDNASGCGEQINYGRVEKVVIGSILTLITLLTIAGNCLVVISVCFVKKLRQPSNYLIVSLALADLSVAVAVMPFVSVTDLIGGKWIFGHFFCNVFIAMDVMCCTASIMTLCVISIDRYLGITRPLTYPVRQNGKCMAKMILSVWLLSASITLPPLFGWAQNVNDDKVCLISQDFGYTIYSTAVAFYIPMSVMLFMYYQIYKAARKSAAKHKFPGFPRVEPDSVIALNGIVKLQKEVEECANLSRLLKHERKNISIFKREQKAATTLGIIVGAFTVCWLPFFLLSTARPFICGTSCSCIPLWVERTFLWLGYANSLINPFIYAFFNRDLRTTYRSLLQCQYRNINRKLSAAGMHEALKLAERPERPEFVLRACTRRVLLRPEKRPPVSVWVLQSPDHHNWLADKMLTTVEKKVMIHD

Cn1cc(CN2CCN(c3ccccc3)CC2)c2ccccc21 [Ex 1, 1-methyl-3-((4-phenylpiperazin-1-yl)methyl)-1H-indole]
inhibition at 1 µM [1]: 22.3%

Oc1cccc(N2CCN(Cc3ccc(OC(F)(F)F)cc3)CC2)c1 [Ex 2, 3-(4-(4-(trifluoromethoxy)benzyl)piperazin-1-yl)phenol]
inhibition at 1 µM [1]: 15.1%

c1ccc(OCCN2CCN(c3cccc4[nH]ccc34)CC2)cc1 [Ex 3, 4-(4-(2-phenoxyethyl)piperazin-1-yl)-1H-indole]
inhibition at 1 µM [1]: 53.7% | IC50 (radioligand [125I]LSD 0.82 nM): 1940 nM

Fc1cc2c(c(CN3CCN(C4CCc5ccccc5C4)CC3)c1)OCOC2 (stereo not shown) [Ex 4, 1-((6-fluoro-4H-benzo[d][1,3]dioxin-8-yl)methyl)-4-(1,2,3,4-tetrahydronaphthalen-2-yl)piperazine]
inhibition at 1 µM [1]: 49% | IC50 (radioligand [125I]LSD 0.82 nM): 2330 nM

Cc1cc(NC(=O)CN2CCN(c3cccc4[nH]ccc34)CC2)n(C)n1 [Ex 5, 2-(4-(1H-indol-4-yl)piperazin-1-yl)-N-(1,3-dimethyl-1H-pyrazol-5-yl)acetamide]
inhibition at 1 µM [1]: 14.3%

CC[C@H](C)C(=O)N1CCN(Cc2cc(C(C)C)ccc2OC)CC1 [Ex 6, (S)-1-(4-(5-isopropyl-2-methoxybenzyl)piperazin-1-yl)-2-methylbutan-1-one]
inhibition at 1 µM [1]: 15%

N#CCCCN1CCN(c2cccc3[nH]ccc23)CC1 [Ex 7, 4-(4-(1H-indol-4-yl)piperazin-1-yl)butanenitrile]
IC50 (radioligand [125I]LSD 0.82 nM): 713 nM | inhibition at 1 µM: 49.6%

COc1ccc(C(C)C)cc1CN1CCN(C(=O)c2ccsc2)CC1 [Ex 8, (4-(5-isopropyl-2-methoxybenzyl)piperazin-1-yl)(thiophen-3-yl)methanone]
inhibition at 1 µM [1]: 30.5%

COc1ccc(C(C)C)cc1CN1CCN(C(=O)c2ccc(Br)cc2)CC1 [Ex 9, (4-bromophenyl)(4-(5-isopropyl-2-methoxybenzyl)piperazin-1-yl)methanone]
inhibition at 1 µM [1]: 68.1% | IC50 (radioligand [125I]LSD 0.82 nM): 1790 nM

Cc1ccc(N2CCN(Cc3ccc(Cl)nc3)CC2)c(C)c1 [Ex 10, 1-((6-chloropyridin-3-yl)methyl)-4-(2,4-dimethylphenyl)piperazine]
inhibition at 1 µM [1]: 16.6%

COc1ccc(C(C)C)cc1CN1CCN(C(=O)Cc2c[nH]c3ccccc23)CC1 [Ex 11, 2-(1H-indol-3-yl)-1-(4-(5-isopropyl-2-methoxybenzyl)piperazin-1-yl)ethanone]
inhibition at 1 µM: 16.3%

COc1ccc(CN2CCN(c3ccc(OC)c(OC)c3)CC2)c(OC)n1 [Ex 12, 1-(3,4-dimethoxyphenyl)-4-((2,6-dimethoxypyridin-3-yl)methyl)piperazine]
inhibition at 1 µM [1]: -0.3%

Cc1ccc(N2CCN(Cc3ccc(OC4CCCCO4)cc3)CC2)c(C)c1 (stereo not shown) [Ex 13, 1-(2,4-dimethylphenyl)-4-(4-(tetrahydro-2H-pyran-2-yloxy)benzyl)piperazine]
inhibition at 1 µM [1]: 12.1%

FC(F)(F)c1cccc(N2CCN(Cc3cccnc3Nc3ccccc3)CC2)c1 [Ex 14, N-phenyl-3-((4-(3-(trifluoromethyl)phenyl)piperazin-1-yl)methyl)pyridin-2-amine]
inhibition at 1 µM [1]: 19.5%

COc1ccc(CN2CCN(c3ccccc3OC(C)C)CC2)c(OC)n1 [Ex 15, 1-((2,6-dimethoxypyridin-3-yl)methyl)-4-(2-isopropoxyphenyl)piperazine]
IC50: 82.2 nM | inhibition at 1 µM: 92.2%

COc1ccc(CN2CCN(c3ccc(C)cc3C)CC2)c(OC)n1 [Ex 16, 1-((2,6-dimethoxypyridin-3-yl)methyl)-4-(2,4-dimethylphenyl)piperazine]
inhibition at 1 µM [1]: 8.8%

Cn1cc(CN2CCN(c3cccc(C(F)(F)F)c3)CC2)c(=O)n(C)c1=O [Ex 17, 1,3-dimethyl-5-((4-(3-(trifluoromethyl)phenyl)piperazin-1-yl)methyl)pyrimidine-2,4(1H,3H)-dione]
inhibition at 1 µM [1]: 28.5%

COc1ccc(CN2CCN(c3ccc(Cl)cc3)CC2)c(OC)n1 [Ex 18, 1-(4-chlorophenyl)-4-((2,6-dimethoxypyridin-3-yl)methyl)piperazine]
inhibition at 1 µM [1]: 12.3%

c1cc(N2CCN(Cc3ccc(OC4CCCCO4)cc3)CC2)c2cc[nH]c2c1 (stereo not shown) [Ex 19, 4-(4-(4-(tetrahydro-2H-pyran-2-yloxy)benzyl)piperazin-1-yl)-1H-indole]
inhibition at 1 µM [1]: 59.5% | IC50 (radioligand [125I]LSD 0.82 nM): 1140 nM

Cc1cccc(-n2c(=O)c(CN3CCN(c4cccc5[nH]ccc45)CC3)cc3cccnc32)c1 [Ex 20, 3-((4-(1H-indol-4-yl)piperazin-1-yl)methyl)-1-m-tolyl-1,8-naphthyridin-2(1H)-one]
inhibition at 1 µM [1]: 51.9% | IC50 (radioligand [125I]LSD 0.82 nM): 423 nM

COc1ccc(CN2CCN(c3cccc(C(F)(F)F)c3)CC2)c(OC)n1 [Ex 21, 1-((2,6-dimethoxypyridin-3-yl)methyl)-4-(3-(trifluoromethyl)phenyl)piperazine]
inhibition at 1 µM [1]: 9.4%

COc1ccc(CN2CCN(c3cccc4[nH]ccc34)CC2)c(OC)n1 [Ex 22, 4-(4-((2,6-dimethoxypyridin-3-yl)methyl)piperazin-1-yl)-1H-indole]
inhibition at 1 µM [1]: 114% | IC50 (radioligand [125I]LSD 0.82 nM): 109 nM

COc1ccc(C(C)C)cc1CN1CCN(c2ccc(Cl)cc2)CC1 [Ex 23, 1-(4-chlorophenyl)-4-(5-isopropyl-2-methoxybenzyl)piperazine]
inhibition at 1 µM [1]: 35.9%

COc1ccc(C(C)C)cc1CN1CCN(c2ccc(C)cc2C)CC1 [Ex 24, 1-(2,4-dimethylphenyl)-4-(5-isopropyl-2-methoxybenzyl)piperazine]
inhibition at 1 µM [1]: 41.6%

Clc1ccc(CN2CCN(c3cccc4[nH]ccc34)CC2)cn1 [Ex 25, 4-(4-((6-chloropyridin-3-yl)methyl)piperazin-1-yl)-1H-indole]
IC50: 328 nM | inhibition at 1 µM: 66.8%

O=[N+]([O-])c1ccc(N2CCN(Cc3cccnc3Nc3ccccc3)CC2)cc1 [Ex 26, 3-((4-(4-nitrophenyl)piperazin-1-yl)methyl)-N-phenylpyridin-2-amine]
inhibition at 1 µM [1]: -4.6%

COc1ccc(C(C)C)cc1CN1CCN(c2ncccn2)CC1 [Ex 27, 2-(4-(5-isopropyl-2-methoxybenzyl)piperazin-1-yl)pyrimidine]
inhibition at 1 µM [1]: 48.9%

c1ccc2[nH]c(CN3CCN(c4cccc5[nH]ccc45)CC3)nc2c1 [Ex 28, 2-((4-(1H-indol-4-yl)piperazin-1-yl)methyl)-1H-benzo[d]imidazole]
inhibition at 1 µM [1]: 28.8%

c1ccc(CN2CCN(c3cccc4[nH]ccc34)CC2)cc1 [Ex 30, 4-(4-benzylpiperazin-1-yl)-1H-indole]
inhibition at 1 µM [1]: 83.1% | IC50 (radioligand [125I]LSD 0.82 nM): 339 nM

Fc1ccccc1CN1CCN(c2cccc3[nH]ccc23)CC1 [Ex 31, 4-(4-(2-fluorobenzyl)piperazin-1-yl)-1H-indole]
IC50 (radioligand [125I]LSD 0.82 nM): 460 nM | inhibition at 1 µM: 82.6%

c1ccc2cc(CN3CCN(c4cccc5[nH]ccc45)CC3)ccc2c1 [Ex 32, 4-(4-(naphthalen-2-ylmethyl)piperazin-1-yl)-1H-indole]
IC50 (radioligand [125I]LSD 0.82 nM): 760 nM | inhibition at 1 µM: 78.3%

Clc1ccccc1CN1CCN(c2cccc3[nH]ccc23)CC1 [Ex 33, 4-(4-(2-chlorobenzyl)piperazin-1-yl)-1H-indole]
IC50 (radioligand [125I]LSD 0.82 nM): 223 nM | inhibition at 1 µM: 78.2%

Clc1ccc(CN2CCN(c3cccc4[nH]ccc34)CC2)cc1Cl [Ex 34, 4-(4-(3,4-dichlorobenzyl)piperazin-1-yl)-1H-indole]
IC50 (radioligand [125I]LSD 0.82 nM): 1240 nM | inhibition at 1 µM: 54.7%

Clc1ccc(CN2CCN(c3cccc4[nH]ccc34)CC2)c(Cl)c1 [Ex 35, 4-(4-(2,4-dichlorobenzyl)piperazin-1-yl)-1H-indole]
inhibition at 1 µM [1]: 51.3%

O=[N+]([O-])c1cccc(CN2CCN(c3cccc4[nH]ccc34)CC2)c1 [Ex 36, 4-(4-(3-nitrobenzyl)piperazin-1-yl)-1H-indole]
inhibition at 1 µM [1]: 41.5%

CC(C)Oc1ccccc1N1CCN(Cc2ccc(Cl)nc2)CC1 [b, 1-((6-chloropyridin-3-yl)methyl)-4-(2-isopropoxyphenyl)piperazine]
affinity for the 5HT7 receptor (in words) [2]: good affinity

CCOc1ccccc1N1CCN(Cc2c[nH]c3ccccc23)CC1 [c, 3-((4-(2-ethoxyphenyl)piperazin-1-yl)methyl)-1H-indole]
affinity for the 5HT7 receptor (in words): good affinity

CN(C)S(=O)(=O)c1ccc2[nH]cc(CCN)c2c1 [compound a, 3-(2-aminoethyl)-N,N-dimethyl-1H-indole-5-sulfonamide]
affinity for the 5HT7 receptor (in words): good affinity

O=c1[nH]c2ccccc2n1C1CCN(CCOc2ccccc2)CC1 [compound i, 1-(1-(2-phenoxyethyl)piperidin-4-yl)-1H-benzo[d]imidazol-2(3H)-one]
affinity for the 5HT7 receptor (in words) [2]: good affinity

COc1ccccc1N1CCN(CCC(O)c2ccccc2)CC1 (stereo not shown) [d, 3-(4-(2-methoxyphenyl)piperazin-1-yl)-1-phenylpropan-1-ol]
affinity for the 5HT7 receptor (in words) [2]: good affinity

CC(C)Oc1ccccc1N1CCN(Cc2ccc(-n3ccnc3)cc2)CC1 [e, 1-(4-(1H-imidazol-1-yl)benzyl)-4-(2-isopropoxyphenyl)piperazine]
affinity for the 5HT7 receptor (in words): good affinity

COc1ccccc1N1CCN(CCC(=O)Nc2ccc3c(c2)CCC3)CC1 [f, N-(2,3-dihydro-1H-inden-5-yl)-3-(4-(2-methoxyphenyl)piperazin-1-yl)propanamide]
affinity for the 5HT7 receptor (in words) [2]: good affinity

O=c1[nH]c2ccccc2n1C1=CCN(CCCOc2ccccc2)CC1 [j, 1-(1-(3-phenoxypropyl)-1,2,3,6-tetrahydropyridin-4-yl)-1H-benzo[d]imidazol-2(3H)-one]
affinity for the 5HT7 receptor (in words): good affinity

O=c1[nH]c2ccccc2n1C1=CCN(CCOc2ccccc2)CC1 [k, 1-(1-(2-phenoxyethyl)-1,2,3,6-tetrahydropyridin-4-yl)-1H-benzo[d]imidazol-2(3H)-one]
affinity for the 5HT7 receptor (in words) [2]: good affinity
